“Also recorded” adds a separate entry of the source. Counter-ions that a name gives are not always drawn. Like-named read-outs stand apart in the source and are kept apart here.
Columns and labels:
[1] = system: GUS gene positive tobacco plant cells; test: Detection of GUS gene expression in transformed plant cells; format: cell-based; details: 100 μM, 4 h incubation, GUS+ versus control cells
Protocol: In our cellular assay, the tobacco plant with and without the GUS gene (CaMV35S-GUS, cauliflower mosaic virus 35S promoter with the coding region of GUS) were used. (Ref: Jefferson, R.A., EMBO J., 1987, 6, 3901-3907).
Sections of the stem of both plants were cultured on Murashige and Skoog basal medium with sucrose and agar inside of plant culture dish at 2000 lux, 18 h day, 26° C. The calli were collected from the dishes, cut to small pieces and transferred to liquid medium (in screw cap 50 ml Erlenmeyer flasks) to get cell suspension with shaking (120 rpm) at the culture room. Sterilized 1 mM FA910 solution (in water) was added to the cell suspension to final concentration of 100μM. After incubating cells in normal condition for 4 h, take 1 ml of suspension, spin down the cells. The cells were resuspended in 100 μl of fresh culture medium, placed onto glass slide, covered with a cover glass and sealed with wax.
Both the GUS+ and control tobacco cells were examined under a Zeiss microscope equipped with FITC filter set. Photographs were taken of both fluorescent and Nomaski images (Fujichrome P1600D, color reversal film, daylight).

plant cell populations = details: cited from earlier work
β-galactosidase = target: T1, β-galactosidase (Escherichia coli, UniProt P00722); test: In vitro kinetic assay of galactosidase substrates (absorbance increase at 490 nm); format: biochemical; details: in buffer, pH 7.0, room temperature; for Km: read-out: KM (Michaelis constant)
T1 construct: purchased Sigma Chemical Co., St. Louis, Mo
Description: There are two parameters to describe the catalytic reaction of an enzyme on its substrate. The turnover rate k2, i.e. the substrate conversion rate by one unit of enzyme, can be expressed as μmol/(minute·mg). The Michaelis constant KM which gives the substrate binding ability to an enzyme (the smaller is KM, the higher is binding ability), can be expressed as μM. The relevant data for turnover of five lipophilic FDG substrates by β-galactosidase is detailed in Table 2.
The substrates have essentially no absorbance at 490 nm while their hydrolysis products from reaction with β-galactosidase have a strong absorbance at this wavelength. Using the extinction coefficients of the products, the substrate hydrolysis rate can be determined by the absorbance increase at 490 nm (Table 2).
13.8 g NaH2 PO4.H2 O, 0.2 g MgCl2.6H2 O and 7 mL liquid 2-mercaptoethanol are dissolved in 1 liter distilled water and adjusted to pH 7.0 using NaOH.
The glycosidase substrates are dissolved at 5 mg/mL in anhydrous DMSO.
β-Galactosidase (Sigma Chemical Co., St. Louis, Mo.) is dissolved at 1 mg/mL in water. This solution is stable for 24 hours at room temperature.
A series of substrate concentrations between 1 μM and 1 mM in 2.8 mL of the assay buffer is prepared and pipetted into a cuvette. 0.2 mL of a 1 mg/mL solution of β-galactosidase in water is added in the cuvette at room temperature to initiate the enzymatic reaction and the absorbance increase at 490 nm is immediately recorded in the spectrophotometer equipped with a chart recorder set at a speed of 10 mm/min. The enzyme reaction rate is calculated using an appropriate product extinction coefficient. Double reciprocal plotting of reaction rate and substrate concentration will yield the turnover rate and Michaelis constant (Stryer, BIOCHEMISTRY p. 189 (W. H. Freeman & Co., N.Y. 1988)).

cells = test: Cytotoxicity of the labeling reagent for cultured cells; format: cell-based; details: for toxicity effects on labelled cells: concentration up to 100 mM
lacZ+ cell = test: Examination of galactosidase activity of sorted cells with resorufin galactoside; format: cell-based; details: 0.5 mM, 0.1 M phosphate buffer, 0.1% Triton X-100
Protocol: The sorted cell is collected in a 96 well microtiter plate (Corning, N.Y.). The cell galactosidase activity is examined by means of the permeant fluorogenic substrate resorufin galactoside (Molecular Probes, Inc., Eugene, OR). To 20 μl cell sample in a microtiter well, is added 200 μl of a 0.5 mM resorufin galactoside solution in 0.1 M phosphate buffer containing 1 mM MgCl2 and 0.1% Triton X-100. After 1 hour incubation, the plate is read in a CYTOFLUOR™ fluorescence plate reader (Millipore, Bedford, Mass.) with excitation at 560 nm, emission at 645 nm, sensitivity=1. A fluorescence reading below 20 can be scored lacZ- cell and a reading higher than 60 can be scored lacZ+. The resorufin galactoside can detect the enzyme activity in a single lacZ^+ cell within 1 hour.

CRE BAG 2 (lacZ+) cells = test: Labeling of lacZ+ cells with fluorogenic substrate, fluorescence microscopy; format: cell-based, mouse; details: 60 μM
Description: The photographs were taken under a Zeiss Axioplan Microscope equipped with FITC filter set using Fujichrome p1600 color reversal (slide) film. This film was then commercially developed. The black and white photographs were printed from color slides under the following conditions: 1)Internegative using Ilford Panf film, exposed for 1/60 sec. at f11;2) black and white prints on Kodak polycontrast III paper.
(§1) CRE BAG 2 (lacZ+) cells were used to test the effectiveness of the substrate in labeling lacZ+ cells. NIH3T3 (lacZ-) cells were used as a control. Both cell lines were obtained from American Type Culture Collection Co., Rockville, Md. The cells were grown in a humidified atmosphere of 5% CO2 in Dulbecco's modified Eagle's medium (DMEM) supplemented with 10% calf serum, 50 μg/ml gentamycin, 300 μg/ml L-glutamine and 10 mM HEPES pH 7.4 (culture medium).
(§2) to 1.0 mg of 5-fattyacylaminofluorescein di-β-galactopyranoside substrate (C12 FDG) was added 0.1193 ml of 20% DMSO to get 10 mM stock solution. Stock solutions were kept sealed in the brown bottle and stored at 4° C.
(§3) […] Labeling culture medium was filter-sterilized by passing through an ACRODISC™ filter (0.20 μm pore size).
Cells were washed with fresh (non-labeling) culture medium before examination. […] After 6 hrs., the fluorescence intensity in CRE BAG 2 cells reached its highest level.

NIH3T3 (lacZ-) cells = test: Labeling of lacZ- control cells with fluorogenic substrate, fluorescence microscopy; format: cell-based, mouse; details: 60 μM, after 1 hr. incubation
Protocol: as §1, §2, §3
Cells were washed with fresh (non-labeling) culture medium before examination. Cells were observed using a microscope equipped with a fluorescein filter. […] After 6 hrs., the fluorescence intensity in CRE BAG 2 cells reached its highest level.

T1 sequence (P00722 2-1024): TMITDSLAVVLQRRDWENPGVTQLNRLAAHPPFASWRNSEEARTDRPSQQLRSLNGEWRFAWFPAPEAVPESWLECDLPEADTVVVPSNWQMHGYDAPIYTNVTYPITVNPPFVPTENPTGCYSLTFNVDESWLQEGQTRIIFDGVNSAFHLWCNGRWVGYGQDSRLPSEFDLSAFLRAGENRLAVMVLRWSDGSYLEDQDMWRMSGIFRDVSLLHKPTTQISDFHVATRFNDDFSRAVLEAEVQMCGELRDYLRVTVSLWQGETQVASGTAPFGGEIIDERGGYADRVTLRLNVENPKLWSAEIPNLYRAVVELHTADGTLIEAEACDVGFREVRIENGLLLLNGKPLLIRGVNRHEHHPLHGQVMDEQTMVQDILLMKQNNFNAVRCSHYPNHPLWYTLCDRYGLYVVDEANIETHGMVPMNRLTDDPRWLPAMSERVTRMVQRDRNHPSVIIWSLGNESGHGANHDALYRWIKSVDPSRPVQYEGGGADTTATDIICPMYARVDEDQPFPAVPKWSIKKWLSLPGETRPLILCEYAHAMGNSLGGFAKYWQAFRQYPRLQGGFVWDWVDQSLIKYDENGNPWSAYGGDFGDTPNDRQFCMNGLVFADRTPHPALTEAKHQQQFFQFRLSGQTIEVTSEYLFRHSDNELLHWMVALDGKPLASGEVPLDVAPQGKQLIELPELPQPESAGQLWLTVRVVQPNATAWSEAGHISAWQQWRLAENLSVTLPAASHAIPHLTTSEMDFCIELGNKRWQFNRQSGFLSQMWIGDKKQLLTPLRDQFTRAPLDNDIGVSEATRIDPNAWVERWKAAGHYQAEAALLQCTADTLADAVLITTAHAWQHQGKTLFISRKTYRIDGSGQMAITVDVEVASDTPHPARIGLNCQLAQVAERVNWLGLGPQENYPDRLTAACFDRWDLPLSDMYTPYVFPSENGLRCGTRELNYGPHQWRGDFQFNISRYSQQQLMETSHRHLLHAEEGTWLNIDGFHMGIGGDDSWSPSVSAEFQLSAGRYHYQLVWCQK

Compound	toxicity to the cells (plant cell populations)	k2 (turnover rate) (β-galactosidase) [µmol/min/mg]	Km (β-galactosidase) [µM]	toxicity effects on labelled cells (cells)	also measured
CCCCCCCCCCCC(=O)Nc1ccc2c(c1)C(=O)OC21c2ccc(O[C@@H]3O[C@H](C(=O)O)[C@@H](O)[C@H](O)[C@H]3O)cc2Oc2cc(O[C@@H]3O[C@H](C(=O)O)[C@@H](O)[C@H](O)[C@H]3O)ccc21 [FA910, 5-DODECANOYLAMINOFLUORESCEIN DI-β-D-GLUCOPYRANOSIDURONIC ACID, DI-LITHIUM SALT]					staining of tobacco cells (yellowish-green fluorescence) [1]: Only the GUS gene positive tobacco plant cells were stained
CCCCCCCCCCCCCCCCCC(=O)Nc1ccc2c(c1)C(=O)OC21c2ccc(O)cc2Oc2cc(O)ccc21 [Example F18, octadecanoyl aminofluorescein]	non-toxic				
CCCCCCCCCCCCCCCCCC(=O)Nc1ccc2c(c1)C(=O)OC21c2ccc(O[C@@H]3O[C@H](CO)[C@H](O)[C@H](O)[C@H]3O)cc2Oc2cc(O[C@@H]3O[C@H](CO)[C@H](O)[C@H](O)[C@H]3O)ccc21 [C18 FDG]		8.28	20.8	no detectible toxicity effects	
O=c1ccc2nc3ccc(O[C@@H]4O[C@H](CO)[C@H](O)[C@H](O)[C@H]4O)cc3oc-2c1 [resorufin galactoside]					time to detect enzyme activity in a single lacZ+ cell (lacZ+ cell): ≤ 1 h
CCCCCCCCCCCCCCCC(=O)Nc1ccc2c(c1)C(=O)OC21c2ccc(O[C@@H]3O[C@H](CO)[C@H](O)[C@H](O)[C@H]3O)cc2Oc2cc(O[C@@H]3O[C@H](CO)[C@H](O)[C@H](O)[C@H]3O)ccc21 [C16 FDG]		0.273	1.06	no detectible toxicity effects	
rhodamine isothiocyanate [RITC]	non-toxic				toxicity to the cells at high levels (plant cell populations): toxic at high levels
fluorescein isothiocyanate [FITC]	non-toxic				toxicity to the cells at high levels (plant cell populations; high levels): toxic at high levels
O=C1OC2(c3ccc(O[C@@H]4O[C@H](CO)[C@H](O)[C@H](O)[C@H]4O)cc3Oc3cc(O[C@@H]4O[C@H](CO)[C@H](O)[C@H](O)[C@H]4O)ccc32)c2ccccc21 [C0 FDG, fluorescein di-62-galactopyranoside, reference compound]		1.90	18		
CCCCCCCCCCCCCCCCCCOC(=O)c1ccccc1-c1c2ccc(=[N+](CC)CC)cc-2oc2cc(N(CC)CC)ccc12 [Example R18, octadecyl rhodamine B]	non-toxic				
CCCCCCCCCCCC(=O)Nc1ccc2c(c1)C(=O)OC21c2ccc(O[C@@H]3O[C@H](CO)[C@H](O)[C@H](O)[C@H]3O)cc2Oc2cc(O[C@@H]3O[C@H](CO)[C@H](O)[C@H](O)[C@H]3O)ccc21 [C12 FDG, 5-DODECANOYLAMINOFLUORESCEIN DI-β-D-GALACTOPYRANOSIDE]		0.0537	0.316	no detectible toxicity effects	time at which fluorescence intensity in CRE BAG 2 cells reached its highest level (CRE BAG 2 (lacZ+) cells): 6 h; fluorescence inside CRE BAG 2 cells (CRE BAG 2 (lacZ+) cells; after 1 hr. incubation): fluorescence was observed inside CRE BAG 2 cells; population doubling time compared with control (cells; 60 μM labeling medium): same population doubling time as the control; population doubling time compared with control (cells; 0.2 mM in the culture medium): same population doubling time as the control; morphology and viability of cells (cells; grown in 0.2 mM for 10 days): normal morphology and remained viable; also recorded: normal in morphology and appearance; second generation of subcultured cells (cells; preincubated in 60 μM for 24 hrs.): cells of second generation were normal; second generation of subcultured cells (cells; preincubated in the labeled culture medium for 24 hrs.): cells of the second generation were normal; fluorescence in 3T3 cells (NIH3T3 (lacZ-) cells): not in 3T3 cells
